The values that follow come from patent EP4685142A1, “TRIAZINE COMPOUND AND USE THEREOF” (Chengdu Zenitar Biomedical Technology Co., Ltd., priority 2023, dated 2024).

Data set [1] concerns the target T1, NLRP3 inflammasome (Homo sapiens, UniProt Q96P20).
T1 construct: host or cells: THP-1 cells
Nature of the data set: Inhibitory activity of NLRP3 inflammasome in human monocytes (THP-1 cells, LPS + Nigericin, IL-1β ELISA). In kind it is cell-based. On the procedure:
1. Determination of inhibitory activity of NLRP3 inflammasome in human monocytes
Experimental method: THP-1 cells were cultured in RPMI culture medium containing PMA (10 µM), and then inoculated in 48-well plates at a density of 2×10^5 cells/mL, the plates were incubated overnight in a 5% CO2 incubator at 37°C. The next day, the above culture medium was replaced with Opti-MEM culture medium containing 1 µg/mL LPS. After 3 hours, the grown cells were simulated for 40 min with a drug, and then simulated for 40 min with Nigericin (10 µM), and a cell supernatant was harvested for ELISA analysis.
Table 2 Inhibitory activity of NLRP3 inflammasome

The nature of data set [2]: Pharmacokinetic evaluation in Balb/c mice. To be noted: mouse, in vivo, 5 mg/kg, PO, Balb/c mice; for AUC(0-t): read-out: AUC(0-t); for Cmax: read-out: Cmax; for half-life: read-out: T1/2 (converted). In kind it is in vivo. The text has this: 4. Pharmacokinetic evaluation of compounds in Balb/c mice
Experimental purpose: to understand pharmacokinetic properties of the compounds.
Experimental basis: Technical Guidelines for Nonclinical Pharmacokinetic Studies of Chemical Drugs, 2014.
Experimental protocol: the pharmacokinetic properties of the compounds were investigated via intravenous administration and intragastric administration in Balb/c mice.
The blood drug concentration was quantitatively analyzed by LC-MS/MS, and pharmacokinetic parameters were calculated, such as peak concentration (Cmax), area under the concentration-time curve (AUC(0-t)), half-life (T1/2), clearance (CL), volume of distribution at steady state (Vdss), and bioavailability (F).
The results of pharmacokinetic evaluation are shown in Table 5 below: Table 5 Pharmacokinetic test results of compounds in Balb/c mice

The mark [3] stands for this setting: THP-1 cells, PMA, LPS 1 µg/mL 3 h, drug 40 min, Nigericin 10 µM 40 min, IL-1β ELISA, read-out: IC50.

Read-outs that look alike come from different tables or passages of the source.

T1 sequence (Q96P20 whole entry): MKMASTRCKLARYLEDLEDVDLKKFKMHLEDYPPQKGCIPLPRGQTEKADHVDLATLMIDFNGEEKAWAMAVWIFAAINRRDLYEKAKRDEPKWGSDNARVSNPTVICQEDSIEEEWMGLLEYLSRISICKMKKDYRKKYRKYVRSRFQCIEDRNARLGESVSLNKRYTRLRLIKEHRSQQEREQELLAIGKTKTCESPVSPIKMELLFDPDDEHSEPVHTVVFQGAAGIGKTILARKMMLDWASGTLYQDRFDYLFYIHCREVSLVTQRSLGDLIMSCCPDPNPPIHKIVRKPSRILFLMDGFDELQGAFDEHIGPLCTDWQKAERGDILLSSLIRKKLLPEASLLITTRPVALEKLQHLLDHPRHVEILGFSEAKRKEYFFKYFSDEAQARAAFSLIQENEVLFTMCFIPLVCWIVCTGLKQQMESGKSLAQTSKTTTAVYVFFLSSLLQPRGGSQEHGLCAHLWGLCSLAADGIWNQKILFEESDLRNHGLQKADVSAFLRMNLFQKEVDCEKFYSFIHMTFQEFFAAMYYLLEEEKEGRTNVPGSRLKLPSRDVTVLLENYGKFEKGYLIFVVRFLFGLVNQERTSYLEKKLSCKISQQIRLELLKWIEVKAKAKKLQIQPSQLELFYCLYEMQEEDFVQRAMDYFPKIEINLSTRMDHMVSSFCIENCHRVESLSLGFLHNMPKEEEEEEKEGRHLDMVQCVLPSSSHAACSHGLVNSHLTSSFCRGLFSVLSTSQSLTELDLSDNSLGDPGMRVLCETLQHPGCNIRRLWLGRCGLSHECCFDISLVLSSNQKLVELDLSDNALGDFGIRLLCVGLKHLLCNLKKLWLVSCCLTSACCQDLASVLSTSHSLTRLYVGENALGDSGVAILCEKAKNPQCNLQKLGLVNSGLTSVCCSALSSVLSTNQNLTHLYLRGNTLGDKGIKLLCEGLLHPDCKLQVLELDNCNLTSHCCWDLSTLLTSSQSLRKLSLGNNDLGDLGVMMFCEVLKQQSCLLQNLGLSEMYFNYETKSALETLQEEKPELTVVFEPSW

As to `CCN1CCC[C@@H](Nc2nnc(-c3ccc4c(c3O)CCC4=C(F)F)n(C)c2=O)C1` [Compound 2, (R)-3-(1-(difluoromethylene)-4-hydroxy-2,3-dihydro-1H-inden-5-yl)-6-((1-ethylpiperidin-3-y 1)amino)-4-methyl-1,2,4-triazin-5(4H)-ketone], the 50% inhibitory concentration (IC50) in data set [1] is 4.86 nM. For the same molecule, in data set [2], the AUC(0-t) stood at 15200 ng·h/mL, the Cmax came to 2690 ng/mL and the half-life was 2.82 h. Take `[2H]C([2H])([2H])C([2H])([2H])N1CCC[C@@H](Nc2nnc(-c3ccc4sccc4c3O)n(C)c2=O)C1` [Compound 6, (R)-6-((1-(ethyl-d5)piperidin-3-yl)amino)-3-(4-hydroxybenzo[b]thiophen-5-yl)-4-methyl-1,2,4-triazin-5(4H)-ketone]: the IC50 in data set [1] stood at 3.01 nM. Also, in data set [2], the AUC(0-t) was 8300 ng·h/mL, the Cmax was 1340 ng/mL and the half-life is 3.18 h. The corresponding values for `CN1CCC[C@@H](Nc2nnc(-c3ccc4c(c3O)CCC4=C(F)F)n(C)c2=O)C1` [Compound 13, (R)-3-(1-(difluoromethylene)-4-hydroxy-2,3-dihydro-1H-inden-5-yl)-4-methyl-6-((1-methylpiperidin-3-yl)amino)-1,2,4-triazin-5 (4H)-ketone] are 1.36 nM, 98700 ng·h/mL, 11400 ng/mL and 5.47 h. Consider `C#Cc1ccc(-c2nnc(N[C@@H]3CCCN(CC)C3)c(=O)n2C)c(O)c1` [Compound 25, (R)-6-((1-ethylpiperidin-3-yl)amino)-3-(4-ethynyl-2-hydroxyphenyl)-4-methyl-1,2,4-triazin-5 (4H)-ketone], for which, in data set [1] (setting [3]), the IC50 was 6.7 nM. In the case of `C#Cc1ccc(-c2nnc(N[C@@H]3CCCN(CCO)C3)c(=O)n2C)c(O)c1` [Compound 26, (R)-3-(4-ethynyl-2-hydroxyphenyl)-6-((1-(2-hydroxyethyl)piperidin-3-yl)amino)-4-methyl-1,2,4-triazin-5(4H)-ketone], the IC50 in data set [1] (setting [3]) was 25.1 nM. Same read-out and setting: as for `CC#Cc1ccc(-c2nnc(N[C@@H]3CCCN(C)C3)c(=O)n2C)c(O)c1` [Compound 27, (R)-3-(2-hydroxy-4-(prop-1-yn-1-yl)phenyl)-4-methyl-6-((1-methylpiperidin-3-yl)amino)-1,2,4-triazin-5(4H)-ketone], the figure is 14.3 nM. For the molecule `CC#Cc1ccc(-c2nnc(N[C@@H]3CCCN(CC)C3)c(=O)n2C)c(O)c1` [Compound 28, (R)-6-((1-ethylpiperidin-3-yl)Jamino)-3-(2-hydroxy-4-(prop-1-yn-1-yl)phenyl)-4-methyl-1,2,4-triazin-5(4H)-ketone], in data set [1] (read-out: IC50), the IC50 was found to be 29.6 nM. As for `CC#Cc1ccc(-c2nnc(N[C@@H]3CCCN(CCO)C3)c(=O)n2C)c(O)c1` [Compound 29, (R)-6-((1-(2-hydroxyethyl)piperidin-3-yl)amino)-3-(2-hydroxy-4-(prop-1-yn-1-yl)phenyl)-4-methyl-1,2,4-triazin-5(4H)-ketone], the IC50 in data set [1] (setting [3]) was determined as 46.5 nM. Consider `C#Cc1ccc(-c2nnc(N[C@@H]3CCCC[C@H]3O)c(=O)n2C)c(O)c1` [Compound 31, 3-(4-ethynyl-2-hydroxyphenyl)-6-(((1R,2R)-2-hydroxycyclohexyl)amino)-4-methyl-1,2,4-tria zin-5(4H)-ketone], for which the IC50 in data set [1] (read-out: IC50) was 3.64 nM. On the same count and under the same terms, as for `CC#Cc1ccc(-c2nnc(N[C@@H]3CCCC[C@H]3O)c(=O)n2C)c(O)c1` [Compound 32, 3-(2-hydroxy-4-(prop-1-yn-1-yl)phenyl)-6-(((1R,2R)-2-hydroxycyclohexyl)amino)-4-methyl-1,2,4-triazin-5(4H)-ketone.], the figure is 8.53 nM. Same read-out and setting: as for `Cn1c(-c2ccc3ccccc3c2O)nnc(N[C@@H]2CCCC[C@H]2O)c1=O` [Compound 33, 6-(((1R,2R)-2-hydroxycyclohexyl)amino)-3-(1-hydroxynaphthalene-2-yl)-4-methyl-1,2,4-tria zine-5(4H)-ketone], the figure is 12.5 nM; as for `CN1CCO[C@H](CNc2nnc(-c3ccc4sccc4c3O)n(C)c2=O)C1` [Compound 34, (R)-3-(4-hydroxybenzo[b]thiophen-5-yl)-4-methyl-6-(((4-methylmorpholino-2-yl)methyl)amino)-1,2,4-triazine-5(4H)-ketone], 75 nM. With `CC(C)N1CCC[C@@H](Nc2nnc(-c3ccc4sccc4c3O)n(C)c2=O)C1` [Compound 36], the IC50 in data set [1] was found to be 1.55 nM. Besides, in data set [2], the AUC(0-t) was 3320 ng·h/mL, the Cmax was determined as 1510 ng/mL and the half-life was 1.24 h. Consider `CN1C[C@H](Nc2nnc(-c3ccc4sccc4c3O)n(C)c2=O)CC(F)(F)C1` [Compound 37, (R)-6-((5,5-difluoro-1-methylpiperidin-3-yl)amino)-3-(4-hydroxybenzb[b]thiophen-5-yl)-4-m ethyl-1,2,4-triazin-5(4H)-ketone], for which, in data set [1] (read-out: IC50), the IC50 came out at 15.1 nM. Still for that read-out and setting: as for `CN1CCC[C@@H](Nc2nnc(-c3ccc4sccc4c3OC(F)F)n(C)c2=O)C1` [Compound 38, (R)-3-(4-(difluoromethoxy)benzo[b]thiophen-5-yl)-4-methyl-6-((1-methylpiperidin-3-yl)amino)-1,2,4-triazin-5(4H)-ketone], the figure is 257 nM. Take `CN1CCC[C@@H](Nc2nnc(-c3ccc(C4CC4)cc3O)n(C)c2=O)C1` [Compound 39, (R)-3-(4-cyclopropyl-2-hydroxyphenyl)-4-methyl-6-((1-methylpiperidin-3-yl)amino)-1,2,4-tri azin-5(4H)-ketone]: the IC50 in data set [1] (read-out: IC50) worked out at 30 nM. As to `CN1CCC[C@@H](Nc2nnc(-c3ccc(C#CC4CC4)cc3O)n(C)c2=O)C1` [Compound 44, (R)-3-(4-(cyclopropylethynyl)-2-hydroxyphenyl)-4-methyl-6-((1-methylpiperidin-3-yl)amino) -1,2,4-triazin-5(4H)-ketone], the IC50 in data set [1] (read-out: IC50) was determined as 80 nM. Still for that read-out and setting: under `CCN1CCC[C@@H](Nc2nnc(-c3ccc(C#CC4CC4)cc3O)n(C)c2=O)C1` [Compound 45, (R)-3-(4-(cyclopropylethynyl)-2-hydroxyphenyl)-6-((1-ethylpiperidin-3-yl)amino)-4-methyl-1 ,2,4-triazin-5(4H)-ketone] stands 345 nM. Regarding `CN1CCC[C@@H](Nc2nnc(-c3ccc(-c4ccc(F)cc4)cc3O)n(C)c2=O)C1` [Compound 46, (R)-3-(4'-fluoro-3-hydroxy-[1,1'-biphenyl]-4-yl)-4-methyl-6-((1-methylpiperidin-3-yl)amino)-1,2,4-triazin-5(4H)-ketone], the IC50 in data set [1] worked out at 25.5 nM. Consider `CN1CCC[C@@H](Nc2nnc(-c3ccc(-c4ncccn4)cc3O)n(C)c2=O)C1` [Compound 47, (R)-3-(2-hydroxy-4-(pyrimidin-2-yl)phenyl)-4-methyl-6-((1-methylpiperidin-3-yl)amino)-1,2,4-triazin-5(4H)-ketone], for which, in data set [1] (read-out: IC50), the IC50 was 450 nM. With `CN1CCCC2CCN(c3nnc(-c4ccc5sccc5c4O)n(C)c3=O)C21` (centres unmarked) [Compound 48, 3-(4-hydroxybenzo[b]thiophen-5-yl)-4-methyl-6-(7-methyloctahydro-1H-pyrrolo[2,3-b]pyridin-1-yl)-1,2,4-triazin-5(4H)-ketone], the 50% inhibitory concentration (IC50) in data set [1] (setting [3]) was determined as 18.5 nM.

Take `C[C@@H]1[C@H](Nc2nnc(-c3ccc4sccc4c3O)n(C)c2=O)CCCN1C` [Compound 49, 6-(((2R,3R)-1,2-dimethylpiperidin-3-yl)amino)-3-(4-hydroxybenzo[b]thiophen-5-yl)-4-methy 1-1,2,4-triazin-5(4H)-ketone]: in data set [1] (read-out: IC50), the IC50 came to 8.12 nM. As to `C[C@H]1CC[C@@H](Nc2nnc(-c3ccc4sccc4c3O)n(C)c2=O)CN1C` [Compound 50, 6-(((3R,6S)-1,6-dimethylpiperidin-3-yl)amino)-3-(4-hydroxybenzo[b]thiophen-5-yl)-4-methyl-1,2,4-triazin-5 (4H)-ketone], the half-inhibitory concentration (IC50) in data set [1] (read-out: IC50) stood at 350 nM. Take `COCCn1c(-c2ccc3sccc3c2O)nnc(N[C@@H]2CCCN(C)C2)c1=O` [Compound 51, 3-(4-hydroxybenzo[b]thiophen-5-yl)-6-{[(3R)-1-methylpiperidin-3-yl]amino}-4-(2-methoxyethyl)-4H,5H-1,2,4-triazin-5-ketone]: the IC50 in data set [1] stood at 180 nM. For the same molecule, in data set [2], the AUC(0-t) stood at 9780 ng·h/mL, the Cmax was found to be 2940 ng/mL and the half-life is 2.39 h. The matching figures for `CN1C[C@H](F)C[C@@H](Nc2nnc(-c3ccc4sc(F)cc4c3O)n(C)c2=O)C1` [Compound 52, 3-(2-fluoro-4-hydroxybenzo[b]thiophen-5-yl)-6-{[(3R,5R)-5-fluoro-1-methylpiperidin-3-yl]amino}-4-methyl-4H,5H-1,2,4-triazin-5-ketone]: 5.06 nM, 21400 ng·h/mL, 8570 ng/mL and 3.16 h. For `CCN1C[C@H](F)C[C@@H](Nc2nnc(-c3ccc(C4CC4)cc3O)n(C)c2=O)C1` [Compound 53, 3-(4-cyclopropyl-2-hydroxyphenyl)-6-(((3R,5R)-1-ethyl-5-fluoropiperidin-3-yl)amino)-4-met hyl-1,2,4-triazin-5 (4H)-ketone], in data set [1], the IC50 is 18.7 nM. In data set [2], the AUC(0-t) stood at 1400 ng·h/mL, the Cmax came out at 1420 ng/mL and the half-life was 3.85 h.
